Broadly, the GI50 is the concentration at which growth is held to half of that of the control. Usually TGI stands for the concentration at which net growth stops. High values mean lower sensitivity of the cells, low ones greater sensitivity of the cells.

Results on nine molecules are retold here after PubChem BioAssay (NCI).

Some test systems named below: KM12 colon; MDA-MB-435; 786-0 renal; NCI-H522 lung; OVCAR-8 ovarian; HT29 colon; DU-145 prostate; EKVX NSCLC; MALME-3M melanoma; MCF7 breast.
Experiment in all cases: DTP human tumour cell line panel, 48 h

Each structure is given as a SMILES string.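 Briefly, cells in 96-well plates were exposed to five compound concentrations for 48 h, and endpoints were estimated by linear interpolation. At the GI50, growth is halved. TGI denotes the concentration required for complete inhibition of growth.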 Bounds are passed on as bounds.

Consider `Cc1ccc(-c2nc(N3CCCNCC3)c3oc(-c4ccc(C)cc4)nc3n2)cc1`, for which the GI50 in the assay with KM12 colon was 1.72 µM; in the assay on MDA-MB-435 it was 1.78 µM; in the assay with 786-0 renal it was 1.76 µM; in the assay with NCI-H522 lung, 1.75 µM; with OVCAR-8 ovarian, 2.11 µM; with HT29 colon it was 1.49 µM. The GI50 with DU-145 prostate was 1.89 µM; in the assay with EKVX NSCLC, 4.09 µM; with MALME-3M melanoma, 1.98 µM; in the assay with MCF7 breast it was 1.85 µM. Moreover, the TGI in the assay on KM12 colon was determined as 3.2 µM; in the assay with MDA-MB-435, 3.17 µM; with 786-0 renal it was 3.25 µM; in the assay with NCI-H522 lung, 3.51 µM; in the assay on OVCAR-8 ovarian it was 4.22 µM; in the assay with HT29 colon, 2.85 µM. Besides, the TGI was 3.3 µM with DU-145 prostate, > 100 µM in the assay on EKVX NSCLC, 3.61 µM in the assay on MALME-3M melanoma and 3.88 µM in the assay with MCF7 breast.
As for `Cn1cnc([N+](=O)[O-])c1Sc1ncn[nH]1`, the GI50 in the assay on KM12 colon was > 100 µM; in the assay with MDA-MB-435, > 100 µM; in the assay with 786-0 renal, > 100 µM; with NCI-H522 lung it was 19.8 µM; in the assay on OVCAR-8 ovarian, > 100 µM; in the assay on HT29 colon it was > 100 µM. In addition, the GI50 was 63.4 µM in the assay with DU-145 prostate, > 100 µM in the assay with EKVX NSCLC, 23.9 µM in the assay with MALME-3M melanoma and > 100 µM in the assay on MCF7 breast. Further, the concentration for total growth inhibition (TGI) in the assay with KM12 colon, with MDA-MB-435, in the assay with 786-0 renal, in the assay on NCI-H522 lung, in the assay on OVCAR-8 ovarian and in the assay on HT29 colon was > 100 µM throughout. Further, the TGI with DU-145 prostate, with EKVX NSCLC, in the assay with MALME-3M melanoma and with MCF7 breast was > 100 µM throughout.
On to `CCOC(=O)c1c(C)c(C)n2c1NC(=O)C2`, for which the concentration for total growth inhibition (TGI) in the assay on KM12 colon is > 100 µM; in the assay on MDA-MB-435, > 100 µM; with 786-0 renal it was 98.9 µM; in the assay with NCI-H522 lung, > 68 µM; in the assay on OVCAR-8 ovarian it was > 100 µM; in the assay on HT29 colon, > 100 µM. For the same molecule, the TGI in the assay with DU-145 prostate was 64.3 µM; in the assay with EKVX NSCLC it was > 100 µM; in the assay with MALME-3M melanoma, > 85.7 µM; in the assay with MCF7 breast, 84 µM.
For `CCN(CC)CCOc1ccc(C(=O)/C=C\c2ccc(Cl)cc2Cl)cc1`, the GI50 in the assay on KM12 colon is 1.92 µM; with MDA-MB-435, 2.56 µM; in the assay on 786-0 renal, 6.44 µM; in the assay with NCI-H522 lung, 15.2 µM; in the assay with OVCAR-8 ovarian, 13.4 µM; in the assay with HT29 colon it was 2.06 µM. Further, the GI50 in the assay on DU-145 prostate is 10.3 µM; in the assay on EKVX NSCLC, 12.6 µM; in the assay on MALME-3M melanoma, 3.41 µM; in the assay on MCF7 breast it was 1.29 µM. Besides, the TGI with KM12 colon stood at 4.16 µM; in the assay on MDA-MB-435, 7.36 µM; in the assay on 786-0 renal, 20.3 µM; in the assay with NCI-H522 lung it was 35.6 µM; in the assay with OVCAR-8 ovarian it was 28.1 µM; with HT29 colon, 5.62 µM. For the same molecule, the TGI in the assay with DU-145 prostate was 22 µM; with EKVX NSCLC, 25.1 µM; in the assay with MALME-3M melanoma it was 15.3 µM; with MCF7 breast, 3.12 µM.
For `CNC(=O)OCC1C2=C(C(=O)C(C)=C(N)C2=O)N2CC3C(N3C)C12OC` (centres undefined), the total growth inhibition concentration (TGI) in the assay on MDA-MB-435 is > 100 µM; in the assay on 786-0 renal it was 21.2 µM; in the assay on NCI-H522 lung, 19.2 µM; in the assay on OVCAR-8 ovarian, > 100 µM; with HT29 colon, 34.7 µM; in the assay on DU-145 prostate it was 55 µM. The results for the TGI in the assay with EKVX NSCLC, in the assay on MALME-3M melanoma and in the assay on MCF7 breast were > 100 µM, 18.5 µM and > 100 µM, respectively.
For the molecule `O=[N+]([O-])c1ccc(S(=O)(=O)Cc2ccccc2)c2nonc12`, the TGI in the assay with KM12 colon is 38.7 µM; with MDA-MB-435, 40.4 µM; in the assay on 786-0 renal, 37.5 µM; with NCI-H522 lung it was 38 µM; in the assay on OVCAR-8 ovarian, 49 µM; in the assay with HT29 colon, 36.7 µM. In addition, the TGI was 36.3 µM in the assay on DU-145 prostate, 41.8 µM in the assay with EKVX NSCLC, 33.4 µM in the assay with MALME-3M melanoma and 43 µM in the assay with MCF7 breast.
For `CCCNc1nc2ccccc2c2c1S(=O)(=O)c1ccc(Cl)cc1C2=O`, the GI50 with KM12 colon was 1.49 µM; with MDA-MB-435 it was 1.11 µM; with 786-0 renal it was 1.7 µM; in the assay with NCI-H522 lung, 1.17 µM; with OVCAR-8 ovarian, 1.58 µM; in the assay on HT29 colon, 1.65 µM. For the same molecule, the GI50 in the assay with DU-145 prostate was 1.57 µM; in the assay with EKVX NSCLC it was 1.38 µM; in the assay on MALME-3M melanoma it was 1.46 µM; with MCF7 breast, 1.09 µM. Also, the TGI in the assay on KM12 colon, in the assay on MDA-MB-435, in the assay with 786-0 renal, in the assay with NCI-H522 lung, in the assay with OVCAR-8 ovarian and with HT29 colon was > 50 µM throughout. Also, the TGI with DU-145 prostate, in the assay with EKVX NSCLC, with MALME-3M melanoma and in the assay on MCF7 breast was > 50 µM each time.
For `C=C1[C@@H]([C@@]2(C)C=CC(=O)C(C)(C)[C@@H]2CC(=O)OC)CC[C@@]2(C)C(c3ccoc3)OC(=O)[C@H]3O[C@]132` (some centres undefined), the TGI with KM12 colon, in the assay on MDA-MB-435, in the assay with 786-0 renal, with NCI-H522 lung, in the assay with OVCAR-8 ovarian and with HT29 colon was > 100 µM throughout. The total growth inhibition concentration (TGI) in the assay with DU-145 prostate, in the assay on EKVX NSCLC, in the assay on MALME-3M melanoma and in the assay with MCF7 breast was > 100 µM in each case.
Regarding `COc1cc2c3c(n(CCCN=[N+]=[N-])c(=O)c2cc1OC)-c1ccc(N(C)C)cc1C3=O`, the GI50 in the assay with KM12 colon, in the assay on MDA-MB-435, in the assay on 786-0 renal, in the assay on NCI-H522 lung, in the assay with OVCAR-8 ovarian and in the assay on HT29 colon was > 100 µM throughout. Further, the GI50 in the assay with DU-145 prostate, with EKVX NSCLC, in the assay on MALME-3M melanoma and with MCF7 breast was > 100 µM each time. In addition, the TGI in the assay with KM12 colon, in the assay on MDA-MB-435, with 786-0 renal, in the assay on NCI-H522 lung, with OVCAR-8 ovarian and with HT29 colon was > 100 µM each time. In addition, the concentration for total growth inhibition (TGI) in the assay on DU-145 prostate, in the assay on EKVX NSCLC, with MALME-3M melanoma and in the assay with MCF7 breast was > 100 µM in each case.
